Laboratory results from patent US9045498B2, “Hexahydropyrano[3,4-d][1,3]thiazin-2-amine compounds” (Pfizer Inc., priority 2012, dated 2015).

Legend:
[1] = test system: sAPPβ levels in H4 human neuroglioma cells over-expressing the wild-type human APP695; assay: Whole Cell Assay (In Vitro sAPPb Assay); format: cell-based; conditions: 18 hours treatment, geometric mean of 2-3 determinations (4-7 where marked d)
Procedure: Whole Cell Assay (In Vitro sAPPb Assay):
H4 human neuroglioma cells over-expressing the wild-type human APP695 are treated for 18 hours with compound in cell growth media having a final concentration 1% DMSO. sAPPβ levels are measured using either TMB-ELISA or Pierce SuperSignal ELISA Pico Chemiluminescent Substrate (Pierce 37069) with capture APP N-terminal antibody (Affinity BioReagents, OMA1-03132), wild-type sAPPβ specific reporter p192 (Elan), and tertiary anti rabbit-HRP (GE Healthcare).

BACE1 enzyme = BACE1 enzyme (Homo sapiens (Human), UniProt P56817); assay: BACE1 Cell-Free Assay (fluorescence polarization); format: biochemical; conditions: geometric mean of 2-3 determinations; pH 4.5, 3 hours at 37° C.
From the text: This assay measures the inhibition of the beta-secretase enzyme as it cleaves a non-native peptide.
A synthetic APP substrate that can be cleaved by beta-secretase having N-terminal biotin and made fluorescent by the covalent attachment of Oregon Green at the Cys residue is used to assay beta-secretase activity in the presence or absence of the inhibitory compounds. […] The BACE1 enzyme is affinity purified material from conditioned media of CHO-K1 cells that have been transfected with a soluble BACE construct (BACE1deltaTM96His). Compounds are incubated in a ½ log dose response curve from a top concentration of 100 μM with BACE1 enzyme and the biotinylated fluorescent peptide in 384-well black plates (Thermo Scientific #4318). BACE1 is at a final concentration of 0.1 nM with a final concentration of peptide substrate of 150 nM in a reaction volume of 30 μL assay buffer (100 mM sodium acetate, pH 4.5 (brought to pH with acetic acid), and 0.001% Tween-20). Plates are covered and incubated for 3 hours at 37° C. The reaction is stopped with the addition of 30 μL of 1.5 μM Streptavidin (Pierce, #21125). After a 10 minute incubation at room temperature, plates are read on a PerkinElmer EnVision for fluorescence polarization (Ex485 nm/Em530 nm). The activity of the beta-secretase enzyme is detected by changes in the fluorescence polarization that occur when the substrate is cleaved by the enzyme.

BACE2 enzyme = BACE2 enzyme (Homo sapiens (Human), UniProt Q9Y5Z0); assay: BACE2 Cell-free Assay (fluorescence polarization); format: biochemical; conditions: pH 4.5, 3 hours at 37° C.; number of determinations per footnote a, b, d
Procedure: This assay measures the inhibition of the BACE2 enzyme as it cleaves a non-native peptide. A synthetic substrate that can be cleaved by BACE2 having N-terminal biotin and made fluorescent by the covalent attachment of Oregon Green at the Cys residue is used to assay BACE2 activity in the presence or absence of the inhibitory compounds. The substrate is Biotin-[…]-C(Oregon green)-KK-OH. The BACE2 enzyme is available from Enzo Life Sciences (Cat # BML-SE550). Compounds are incubated in a ½ log dose response curve from a top concentration of 100 μM with BACE2 enzyme and the biotinylated fluorescent peptide in 384-well black plates (Thermo Scientific #4318). BACE2 is at a final concentration of 2.5 nM with a final concentration of peptide substrate of 150 nM in a reaction volume of 30 μL assay buffer (100 mM sodium acetate, pH 4.5 (brought to pH with acetic acid), and 0.001% Tween-20). Plates are covered and incubated for 3 hours at 37° C. The reaction is stopped with the addition of 30 μL of 1.5 μM Streptavidin (Pierce, #21125). After a 10 minute incubation at room temperature, plates are read on a Perkin Elmer EnVision for fluorescence polarization (Ex485 nm/Em530 nm). The activity of the beta-secretase enzyme is detected by changes in the fluorescence polarization that occur when the substrate is cleaved by the enzyme.

BACE2 enzyme, sequence (Q9Y5Z0 63-518): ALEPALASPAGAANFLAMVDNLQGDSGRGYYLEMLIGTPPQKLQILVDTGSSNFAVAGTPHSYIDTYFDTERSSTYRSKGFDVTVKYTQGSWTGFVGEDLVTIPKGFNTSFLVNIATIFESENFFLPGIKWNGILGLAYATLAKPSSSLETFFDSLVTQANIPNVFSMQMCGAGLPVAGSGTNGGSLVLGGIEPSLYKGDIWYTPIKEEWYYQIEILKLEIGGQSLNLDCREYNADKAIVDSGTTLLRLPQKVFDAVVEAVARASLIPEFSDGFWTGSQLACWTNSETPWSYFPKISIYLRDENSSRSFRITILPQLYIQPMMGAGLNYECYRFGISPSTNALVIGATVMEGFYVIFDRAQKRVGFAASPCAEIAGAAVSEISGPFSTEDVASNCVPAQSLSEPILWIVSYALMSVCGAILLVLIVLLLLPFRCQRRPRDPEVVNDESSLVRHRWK
BACE1 enzyme, sequence (P56817 46-457): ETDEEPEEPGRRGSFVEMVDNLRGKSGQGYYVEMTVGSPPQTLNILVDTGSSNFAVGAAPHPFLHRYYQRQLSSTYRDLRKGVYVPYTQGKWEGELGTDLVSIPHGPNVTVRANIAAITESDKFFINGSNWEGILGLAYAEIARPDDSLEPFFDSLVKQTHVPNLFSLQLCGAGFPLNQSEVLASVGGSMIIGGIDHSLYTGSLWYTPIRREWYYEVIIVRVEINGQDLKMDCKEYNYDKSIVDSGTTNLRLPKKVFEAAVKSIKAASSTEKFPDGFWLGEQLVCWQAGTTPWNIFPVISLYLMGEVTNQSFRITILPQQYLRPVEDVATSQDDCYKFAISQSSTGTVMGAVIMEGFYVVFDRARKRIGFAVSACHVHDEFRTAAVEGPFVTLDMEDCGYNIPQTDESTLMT

IC50 [1] [nM] | IC50 (BACE1 enzyme) [nM] | IC50 (BACE2 enzyme) [nM] | SMILES
5.9 | – | – | NC1=N[C@@]2(c3cc(CNCC(F)(F)F)c(F)cc3F)CO[C@@H](CF)C[C@H]2CS1 [Example 8, (4aR,6R,8aS)-8a-(2,4-Difluoro-5-{[(2,2,2-trifluoroethyl)amino]methyl}phenyl)-6-(fluoromethyl)-4,4a,5,6,8,8a-hexahydropyrano[3,4-d][1,3]thiazin-2-amine]
393 | 5550 | – | N#Cc1cc([C@]23CO[C@@H](CO)C[C@H]2CSC(N)=N3)c(F)cc1F [Example 3, 5-[(4aR,6R,8aS)-2-Amino-6-(hydroxymethyl)-4,4a,5,6-tetrahydropyrano[3,4-d][1,3]thiazin-8a(8H)-yl]-2,4-difluorobenzonitrile]
46.5 | – | – | COC[C@H]1C[C@H]2CSC(N)=N[C@@]2(c2cc(C#N)c(F)cc2F)CO1 [Example 5, 5-[(4aR,6R,8aS)-2-Amino-6-(methoxymethyl)-4,4a,5,6-tetrahydropyrano[3,4-d][1,3]thiazin-8a(8H)-yl]-2,4-difluorobenzonitrile]
8.05 | 376 | 423 | NC1=N[C@@]2(c3cc(CNCC(F)(F)F)ccc3F)CO[C@@H](CF)C[C@H]2CS1 [Example 15, (4aR,6R,8aS)-6-(Fluoromethyl)-8a-(2-fluoro-5-{[(2,2,2-trifluoroethyl)amino]methyl}phenyl)-4,4a,5,6,8,8a-hexahydropyrano[3,4-d][1,3]thiazin-2-amine]
47.6 | 342 | – | N#Cc1ccc(F)c([C@]23CO[C@@H](C4CC4)C[C@H]2CSC(N)=N3)c1 [Example 13, 3-[(4aR,6R,8aS)-2-Amino-6-cyclopropyl-4,4a,5,6-tetrahydropyrano[3,4-d][1,3]thiazin-8a(8H)-yl]-4-fluorobenzonitrile]
0.545 | 36 | 20 | COC[C@@H](C)NCc1ccc(F)c([C@]23CO[C@@H](c4cnn(C)c4)C[C@H]2CSC(N)=N3)c1 (relative stereo) [Example 18, (4aR*,6R*,8aS*)-8a-[2-Fluoro-5-({[(2R)-1-methoxypropan-2-yl]amino}methyl)phenyl]-6-(1-methyl-1H-pyrazol-4-yl)-4,4a,5,6,8,8a-hexahydropyrano[3,4-d][1,3]thiazin-2-amine]
12.1 | 107 | – | Cc1coc([C@H]2C[C@H]3CSC(N)=N[C@@]3(c3cc(C#N)ccc3F)CO2)n1 [Example 11, 3-[(4aR,6R,8aS)-2-Amino-6-(4-methyl-1,3-oxazol-2-yl)-4,4a,5,6-tetrahydropyrano[3,4-d][1,3]thiazin-8a(8H)-yl]-4-fluorobenzonitrile]
30.4 | 150 | – | C[C@H]1C[C@H]2[C@@H](CF)SC(N)=N[C@@]2(c2cc(CNCC(F)(F)F)ccc2F)CO1 [Example 19, (4S,4aR,6S,8aS)-4-(Fluoromethyl)-8a-(2-fluoro-5-{[(2,2,2-trifluoroethyl)amino]methyl}phenyl)-6-methyl-4,4a,5,6,8,8a-hexahydropyrano[3,4-d][1,3]thiazin-2-amine]
1.88 | 19 | 108 | Cn1cc([C@H]2C[C@H]3CSC(N)=N[C@@]3(c3cc(CNCC(F)(F)F)ccc3F)CO2)cn1 (relative stereo) [Example 16, rel-(4aR,6R,8aS)-8a-(2-Fluoro-5-{[(2,2,2-trifluoroethyl)amino]methyl}phenyl)-6-(1-methyl-1H-pyrazol-4-yl)-4,4a,5,6,8,8a-hexahydropyrano[3,4-d][1,3]thiazin-2-amine]
49.6 | 967 | – | C[C@H]1C[C@H]2CSC(N)=N[C@@]2(c2cc(C#N)ccc2F)CO1 [Example 14, 3-[(4aR,6S,8aS)-2-Amino-6-methyl-4,4a,5,6-tetrahydropyrano[3,4-d][1,3]thiazin-8a(8H)-yl]-4-fluorobenzonitrile]
11.4 | 82 | – | Cc1cc([C@H]2C[C@H]3[C@@H](C)SC(N)=N[C@@]3(c3cc(C#N)ccc3F)CO2)on1 [Example 17, 3-[(4R,4aR,6R,8aS)-2-Amino-4-methyl-6-(3-methyl-1,2-oxazol-5-yl)-4,4a,5,6-tetrahydropyrano[3,4-d][1,3]thiazin-8a(8H)-yl]-4-fluorobenzonitrile]
74 | 445 | – | N#Cc1cc([C@]23CO[C@@H](COCc4ccccc4)C[C@H]2CSC(N)=N3)c(F)cc1F [Example 2, 5-[(4aR,6R,8aS)-2-Amino-6-[(benzyloxy)methyl]-4,4a,5,6-tetrahydropyrano[3,4-d][1,3]thiazin-8a(8H)-yl]-2,4-difluorobenzonitrile]
195 | 2330 | – | C[C@H]1C[C@H]2CSC(N)=N[C@@]2(c2cc(C#N)ccc2Cl)CO1 [Example 6, 3-[(4aR,6S,8aS)-2-Amino-6-methyl-4,4a,5,6-tetrahydropyrano[3,4-d][1,3]thiazin-8a(8H)-yl]-4-chlorobenzonitrile]
6.43 | 60 | – | Cn1cc([C@H]2C[C@H]3CSC(N)=N[C@@]3(c3cc(C#N)ccc3F)CO2)cn1 [Example 12, 3-[(4aR,6R,8aS)-2-Amino-6-(1-methyl-1H-pyrazol-4-yl)-4,4a,5,6-tetrahydropyrano[3,4-d][1,3]thiazin-8a(8H)-yl]-4-fluorobenzonitrile]
119 | 1780 | – | C[C@H]1C[C@H]2CSC(N)=N[C@@]2(c2cccc(C#N)c2)CO1 [Example 7, 3-[(4aR,6S,8aS)-2-Amino-6-methyl-4,4a,5,6-tetrahydropyrano[3,4-d][1,3]thiazin-8a(8H)-yl]benzonitrile]
8.94 | 76 | – | C[C@H]1C[C@H]2CSC(N)=N[C@@]2(c2cc(CNCC(F)(F)F)c(F)cc2F)CO1 [Example 9, (4aR,6S,8aS)-8a-(2,4-Difluoro-5-{[(2,2,2-trifluoroethyl)amino]methyl}phenyl)-6-methyl-4,4a,5,6,8,8a-hexahydropyrano[3,4-d][1,3]thiazin-2-amine]
10.9 | 64 | – | Cc1cc([C@H]2C[C@H]3CSC(N)=N[C@@]3(c3cc(C#N)ccc3F)CO2)on1 [Example 10, 3-[(4aR,6R,8aS)-2-Amino-6-(3-methyl-1,2-oxazol-5-yl)-4,4a,5,6-tetrahydropyrano[3,4-d][1,3]thiazin-8a(8H)-yl]-4-fluorobenzonitrile]
93 | – | 2520 | N#Cc1cc([C@]23CO[C@@H](CF)C[C@H]2CSC(N)=N3)c(F)cc1F [Example 4, 5-[(4aR,6R,8aS)-2-Amino-6-(fluoromethyl)-4,4a,5,6-tetrahydropyrano[3,4-d][1,3]thiazin-8a(8H)-yl]-2,4-difluorobenzonitrile]
53.5 | 1220 | – | COc1cc(F)c([C@]23CO[C@@H](COCc4ccccc4)C[C@H]2CSC(N)=N3)cc1C#N [Example 1, 5-[(4aR,6R,8aS)-2-Amino-6-[(benzyloxy)methyl]-4,4a,5,6-tetrahydropyrano[3,4-d][1,3]thiazin-8a(8H)-yl]-4-fluoro-2-methoxybenzonitrile]
35.7 | 68 | – | C[C@H]1C[C@H]2[C@@H](CF)SC(N)=N[C@@]2(c2cc(CNCC(F)(F)F)c(F)cc2F)CO1 [Example 20, (4S,4aR,6S,8aS)-8a-(2,4-Difluoro-5-{[(2,2,2-trifluoroethyl)amino]methyl}phenyl)-4-(fluoromethyl)-6-methyl-4,4a,5,6,8,8a-hexahydropyrano[3,4-d][1,3]thiazin-2-amine]
